# Source: patent publication US8071142B2, “Anti-bacterial use of extract from Morus australis poir. and compound kuwanon h” (Medical and Pharmaceutical Industry Technology and …, priority 2008, dated 2011)
# Like-named read-outs stand apart in the source and are kept apart here.
# Legend:
# Assay type in all cases: cell-based
# [1] = system: Staphylococcus aureus (Smith); assay: Anti-microbial test, MIC by broth dilution method, Staphylococcus aureus (Smith); conditions: for MIC: Staphylococcus aureus, read-out: MIC SA (Smith)
# Method: (§1) Staphylococcus aureus (Smith), and Staphylococcus aureus, Methicillin Resistant (ATCC 33591), In Vitro Bacteria
# (§2) Minimum inhibitory concentration (MIC) of sample on Staphylococcus aureus (Smith) and Staphylococcus aureus, Methicillin Resistant (ATCC 33591) was determined by the broth dilution method [Edwards J. R. et al. In vitro antibacterial activity of SM-7338, a carbapenem antibiotic with stability to dehydropeptidase I. Antimicrobial Agents Chemotherapy. 33: pp. 215-222, 1989]. The test substance was dissolved (generally 100% DMSO) and serially diluted in solvent to desired stock concentrations. For each concentration tested, a 0.01 ml aliquot (1% DMSO final concentration) was added to a 48-well plate after which 0.99 ml of Mueller-Hinton Broth (DIFCO, USA.) with 1-5×10^5 CFU/ml of Staphylococcus aureus (Smith) or Staphylococcus aureus, Methicillin Resistant (ATCC 33591) was added. Thus, final maximal concentration of DMSO was 1% and the initial test substance concentration was 100 μg/ml or 30 μM. The plates were incubated at 37° C. for 20 hours and then visually examined and scored positive (+) for inhibition of growth or turbidity or negative (−) for no effect upon growth or turbidity. Vehicle-control and active reference agents were used as blank and positive controls, respectively. Each concentration was evaluated in duplicate.
# [2] = system: Staphylococcus aureus, Methicillin Resistant (ATCC 33591); assay: Anti-microbial test, MIC by broth dilution method, methicillin resistant Staphylococcus aureus; conditions: for MIC: Staphylococcus aureus, ATCC 33591 / MRSA, read-out: MIC MRSA
# Method: as §1, §2
# [3] = system: Streptococcus pneumoniae (ATCC 6301); assay: Anti-microbial test, MIC by broth dilution method, Streptococcus pneumoniae; conditions: for MIC: Streptococcus pneumoniae, read-out: MIC SP
# Method: (§3) Streptococcus pneumoniae (ATCC 6301) and Streptococcus pneumoniae (Erythromycin and Ampicillin Res. Clin. Isol.), In Vitro Bacteria
# (§4) Minimum inhibitory concentration (MIC) of sample on Streptococcus pneumoniae and Streptococcus pneumoniae (Erythromycin and Ampicillin Res. Clin. Isol.) was determined by the broth dilution method [Edwards J. R. et al. In vitro antibacterial activity of SM-7338, a carbapenem antibiotic with stability to dehydropeptidase I. Antimicrobial Agents Chemotherapy. 33: pp. 215-222, 1989.]. The test substance was dissolved (generally 100% DMSO) and serially diluted in solvent to desired stock concentrations. For each concentration tested, a 0.01 ml aliquot (1% DMSO final concentration) was added to a 48-well plate after which 0.99 ml of Tryptic Soy Broth (DIFCO, U.S.A.) containing 7% fetal bovine serum with 1-5×10^5 CFU/ml of Streptococcus pneumoniae (ATCC 6301) or Streptococcus pneumoniae (Erythromycin and Ampicillin Res. Clin. Isol.) was added. Thus, final maximal concentration of DMSO was 1% and the initial test substance concentration was 100 μg/ml or 30 μM. The plates were incubated at 37° C. for 20 hours and then visually examined and scored positive (+) for inhibition of growth or turbidity or negative (−) for no effect upon growth or turbidity. Vehicle-control and active reference agents were used as blank and positive controls, respectively. Each concentration was evaluated in duplicate.
# [4] = system: Streptococcus pneumoniae (Erythromycin and Ampicillin Res. Clin. Isol.); assay: Anti-microbial test, MIC by broth dilution method, resistant Streptococcus pneumoniae; conditions: for MIC: Streptococcus pneumoniae, read-out: MIC SP (EM & AM Res.)
# Method: as §3, §4
# [5] = clinical isolates, Tryptic Soy Broth with 7% fetal bovine serum, 37° C., 20 hours, 1% DMSO
# [6] = Mueller-Hinton Broth, 37° C., 20 hours, 1% DMSO, visual growth/turbidity
# [7] = ATCC6301, Tryptic Soy Broth with 7% fetal bovine serum, 37° C., 20 hours, 1% DMSO
Molecule,MIC ([1]; 20 h) [µg/mL],MIC ([2]; 20 h) [µg/mL],"MIC ([3]; ATCC6301, 20 h) [µg/mL]","MIC [4, 5] [µg/mL]","MIC [1, 6] [µg/mL]","MIC [2, 6] [µg/mL]","MIC [3, 7] [µg/mL]",further results
CC(C)=CCc1c(-c2ccc(O)cc2O)oc2c(C3C=C(C)C[C@@H](c4ccc(O)cc4O)C3C(=O)c3ccc(O)cc3O)c(O)cc(O)c2c1=O (stereo partly drawn) [P2-2],3,> 100,30,30,,,,
"CC(C)=CCc1c(-c2ccc(O)cc2O)oc2c3c(cc(O)c2c1=O)OC(C)(C)C=C3 [P3-3, 2-(2,4-dihydroxy-phenyl)-5-hydroxy-8,8-dimethyl-3-(3-methyl-but-2-enyl)-8H-pyrano[2,3-f]chromen-4-one]",,,,30,10,100,100,
Gentamicin [reference compound],,,,,,,,"MIC SA (Smith) [1, 6]: 0.1 µg/mL; MIC MRSA [2, 6]: 1 µg/mL; MIC on MRSA relative to MIC on SA (Smith) ([2]; ratio MRSA / SA (Smith)): 10 times; MIC SP ([3]; Tryptic Soy Broth with 7% fetal bovine serum, 37° C., 20 hours, 1% DMSO): 100 µg/mL; MIC SP (EM & AM Res.) [4, 5]: 100 µg/mL"
"CC(C)=CCc1c(O)ccc(C(=O)C2C(c3c(O)cc(O)c4c(=O)c(CC=C(C)C)c(-c5ccc(O)cc5O)oc34)C=C(C)CC2c2ccc(O)cc2O)c1O (stereo not drawn) [P3-2, 8-[6-[2,4-dihydroxy-3-(3-methyl-but-2-enyl)-benzoyl]-5-(2,4-dihydroxy-phenyl)-3-methyl-cyclohex-2-enyl]-2-(2,4-dihydroxy-phenyl)-5,7-dihydroxy-3-(3-methyl-but-2-enyl)-chromen-4-one]",,,,10,0.3,0.3,10,
CC(C)=CCCC1=CC(c2c(O)cc3c(c2O)C(=O)CC(c2ccc(O)cc2O)O3)C(C(=O)c2ccc(O)cc2O)C(c2ccc(O)cc2O)C1 (stereo not drawn) [P3-1],,,,10,1,3,30,
CC(C)=CCC/C(C)=C/Cc1c(O)ccc2cc(-c3cc(O)cc(O)c3CC=C(C)C)oc12 [P3-4],3,100,30,,,,,MIC ([4]; 20 h): 10 µg/mL
CC1=CC(c2c(O)cc(-c3cc4ccc(O)cc4o3)cc2O)C(C(=O)c2ccc(O)cc2O)[C@H](c2ccc(O)cc2O)C1 (stereo partly drawn) [P2-1],3,> 100,100,,,,,MIC ([4]; 20 h): 30 µg/mL
"CC1(C)S[C@@H]2[C@H](NC(=O)[C@H](N)c3ccccc3)C(=O)N2[C@H]1C(=O)O [Ampicillin, reference compound]",,,,3,0.1,30,0.01,
